Structures can show the parent of a compound that is named as a salt.
Assay: Stability Test: storage at 60° C., 75% R.H., residual amount of the compound by HPLC
Type: physicochemical
Protocol: The crystals of N-[1-butyl-4-[3-[3-(hydroxy)propoxy]-phenyl]-1,2-dihydro-2-oxo-1,8-naphthyridin-3-yl]-N′-(2,6-diisopropyl-4-aminophenyl)urea hydrochloride monohydrate obtained in Example 1 and amorphous N-[1-butyl-4-[3-[3-(hydroxy)propoxy]phenyl]-1,2-dihydro-2-oxo-1,8-naphthyridin-3-yl]-N′-(2,6-diisopropyl-4-aminophenyl)urea hydrochloride were stored at a temperature of 60° C. under a relative humidity (R.H.) of 75% for 4 weeks. Then, the residual amount of the compound therein was quantitatively analyzed using High Performance Liquid Chromatography (HPLC).

| Structure (SMILES) | stability compared with the amorphous hydrochloride (60° C., 75% R.H., 4 weeks, conclusion in words from Table 2) | HPLC Area Percentage (%) (Initial value, before storage at 60° C. / 75% R.H.) | HPLC Area Percentage (%) (storage period 2 weeks at 60° C., relative humidity 75%) | HPLC Area Percentage (%) (storage period 4 weeks at 60° C., relative humidity 75%) |
| --- | --- | --- | --- | --- |
| CCCCn1c(=O)c(NC(=O)Nc2c(C(C)C)cc(N)cc2C(C)C)c(-c2cccc(OCCCO)c2)c2cccnc21 [Example 1, N-[1-butyl-4-[3-[3-(hydroxy)propoxy]phenyl]-1,2-dihydro-2-oxo-1,8-naphthyridin-3-yl]-N′-(2,6-diisopropyl-4-amino-phenyl)urea hydrochloride monohydrate] | quite excellent in stability |  |  |  |
| CCCCn1c(=O)c(NC(=O)Nc2c(C(C)C)cc(N)cc2C(C)C)c(-c2cccc(OCCCO)c2)c2cccnc21.Cl [Amorphous, N-[1-butyl-4-[3-[3-(hydroxy)propoxy]phenyl]-1,2-dihydro-2-oxo-1,8-naphthyridin-3-yl]-N′-(2,6-diisopropyl-4-aminophenyl)urea hydrochloride] |  | 97.7 | 94.6 | 92.7 |
